In ChEMBL document CHEMBL3769405, “Discovery of Potent and Selective Inhibitors of Phosphodiesterase 1 for the Treatment of Cognitive Impairment Associated with Neurodegenerative and Neuropsychiatric Diseases” (J Med Chem, 2016):

Legend:
[1] = Inhibition of bovine brain PDE1 using fluorescent labeled cGMP as substrate after 15 mins by IMAP assay; parameters: species or system Bos taurus
[2] = Selectivity ratio of Ki for recombinant full lenght human PDE4A to bovine brain PDE1
[3] = molecular target: 3',5'-cyclic-AMP phosphodiesterase 4A (Homo sapiens, UniProt P27815); test: Inhibition of recombinant full lenght human PDE4A using fluorescent labeled cAMP as substrate after 15 mins by IMAP assay
3',5'-cyclic-AMP phosphodiesterase 4A, sequence (P27815 whole entry): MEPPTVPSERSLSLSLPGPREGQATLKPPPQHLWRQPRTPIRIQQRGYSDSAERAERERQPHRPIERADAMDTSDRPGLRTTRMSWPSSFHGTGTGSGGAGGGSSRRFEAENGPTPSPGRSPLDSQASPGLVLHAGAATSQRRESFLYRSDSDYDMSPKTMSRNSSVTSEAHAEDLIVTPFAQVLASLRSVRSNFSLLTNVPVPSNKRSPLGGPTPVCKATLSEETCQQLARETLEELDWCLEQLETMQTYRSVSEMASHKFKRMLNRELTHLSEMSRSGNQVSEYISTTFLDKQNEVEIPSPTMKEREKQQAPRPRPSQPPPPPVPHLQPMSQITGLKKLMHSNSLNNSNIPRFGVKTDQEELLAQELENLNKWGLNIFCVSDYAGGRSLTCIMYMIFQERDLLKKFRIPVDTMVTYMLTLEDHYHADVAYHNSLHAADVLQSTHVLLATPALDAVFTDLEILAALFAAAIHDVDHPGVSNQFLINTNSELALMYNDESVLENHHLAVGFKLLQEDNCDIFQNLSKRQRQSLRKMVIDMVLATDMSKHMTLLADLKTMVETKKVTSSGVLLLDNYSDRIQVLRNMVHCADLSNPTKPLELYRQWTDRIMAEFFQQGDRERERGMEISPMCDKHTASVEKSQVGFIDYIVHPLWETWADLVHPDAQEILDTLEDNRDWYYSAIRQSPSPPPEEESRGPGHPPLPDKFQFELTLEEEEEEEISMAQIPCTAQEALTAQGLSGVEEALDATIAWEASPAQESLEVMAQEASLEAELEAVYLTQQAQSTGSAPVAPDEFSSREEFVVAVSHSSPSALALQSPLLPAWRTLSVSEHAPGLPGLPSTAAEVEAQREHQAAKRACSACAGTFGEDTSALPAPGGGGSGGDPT

[4] = in vivo; conditions: C57BL/6, mouse, brain/plasma
[5] = Cmax in C57BL/6 mouse brain at 10 mg/kg administered through oral gavage; assay type: ADME, organism-based; parameters: dose 10 mg/kg, route oral
[6] = Lipophilicity, logD of compound at pH 7.4; assay type: physicochemical; conditions: buffer
[7] = Solubility of compound in PBS; assay type: physicochemical
[8] = Lipophilicity, logD of compound at pH 1.7; assay type: physicochemical; conditions: buffer
[9] = Cmax in C57BL/6 mouse plasma at 10 mg/kg administered through oral gavage; assay type: ADME, organism-based; parameters: dose 10 mg/kg, route oral
[10] = AUClast in C57BL/6 mouse brain at 10 mg/kg administered through oral gavage; assay type: ADME, organism-based; parameters: dose 10 mg/kg, time 0 - last, route oral
[11] = Intrinsic clearance in human liver microsomes; assay type: ADME; conditions: read-out: CLH
[12] = AUClast in C57BL/6 mouse plasma at 10 mg/kg administered through oral gavage; assay type: ADME, organism-based; parameters: dose 10 mg/kg, time 0 - last, route oral

SMILES	Ki [1] [nM]	Ratio Ki [2]	Ki [3] [nM]	other results
CN1C(=O)c2c(nn(Cc3ccc(-c4ccccc4)cc3)c2Nc2ccccc2)N2CC(C3CCOC3)N=C12 (stereo not drawn)	14	857	12000	–
CN1C(=O)c2c(nn(Cc3ccc(-c4ccccc4)cc3)c2Nc2ccccc2)N2C[C@@H](COCc3ccccc3)N=C12	250	> 400	> 100000	–
CN1C(=O)c2c(nn(Cc3ccc(-c4cccc(F)n4)cc3)c2N(C)C)N2C1=N[C@@H]1CCC[C@@H]12	120	9.2	1100	–
CN1C(=O)c2c(nn(Cc3ccc(C4CCCN4)cc3)c2Nc2ccccc2)N2C1=N[C@@H]1CCC[C@@H]12 (stereo partly drawn)	1.6	750	1200	–
CN1C(=O)c2c(nn(Cc3ccc(C4CCCN4C)cc3)c2Nc2ccccc2)N2C1=N[C@@H]1CCC[C@@H]12 (stereo partly drawn)	2.7	1150	3100	–
CN1C(=O)c2c(nn(Cc3ccc(-c4ccc(F)cc4)cc3)c2Nc2ccccc2)N2C1=N[C@@H]1CCC[C@@H]12	0.41	1120	460	–
CCCNc1c2c(nn1Cc1ccc(-c3cccc(F)n3)cc1)N1C(=N[C@@H]3CCC[C@@H]31)N(C)C2=O	15	413	6200	–
CCCC(C)Nc1c2c(nn1Cc1ccc(-c3cccc(F)n3)cc1)N1C(=N[C@@H]3CCC[C@@H]31)N(C)C2=O (stereo partly drawn)	1.3	2000	2600	–
CN1C(=O)c2c(nn(Cc3ccc(-c4cccc(F)n4)cc3)c2NCc2ccccc2)N2C1=N[C@@H]1CCC[C@@H]12	4.9	816	4000	–

The remaining compounds from weak to strong by Ki [1], led by results:

Ki [1] [nM]	Ratio Ki [2]	Ki [3] [nM]	SMILES	other results
1400	7	–	CN1C(=O)c2c(Nc3ccccc3)n[nH]c2N2C1=N[C@@H]1CCC[C@@H]12	–
44	841	37000	CN1Cc2c(nn(Cc3ccc(C(F)(F)F)cc3)c2Nc2ccccc2)N2C1=N[C@@H]1CCC[C@@H]12	CLint scaled [11]: 64 mL/min/kg
31	24	740	CN1C(=O)c2c(nn(Cc3ccc(-c4cccc(F)n4)cc3)c2N(C)c2ccccc2)N2C1=N[C@@H]1CCC[C@@H]12	–
31	12	370	CN1C(=O)c2c(nn(Cc3ccc(-c4cccc(F)n4)cc3)c2Nc2ccncc2)N2C1=N[C@@H]1CCC[C@@H]12	–
28	154	4300	CNc1c2c(nn1Cc1ccc(-c3cccc(F)n3)cc1)N1C(=N[C@@H]3CCC[C@@H]31)N(C)C2=O	–
12	458	5500	CC(C)Nc1c2c(nn1Cc1ccc(-c3cccc(F)n3)cc1)N1C(=N[C@@H]3CCC[C@@H]31)N(C)C2=O	–
7.4	851	6300	CC(C)CNc1c2c(nn1Cc1ccc(-c3cccc(F)n3)cc1)N1C(=N[C@@H]3CCC[C@@H]31)N(C)C2=O	–
6	683	4100	CN1C(=O)c2c(nn(Cc3ccc(-c4ccccc4)cc3)c2Nc2ccccc2)N2C[C@@H](CO)N=C12	–
4.8	2060	9900	CN1C(=O)c2c(nn(Cc3ccc(-c4ccccc4)cc3)c2Nc2ccccc2)N2CC(C)(C)CN=C12	–
2.8	571	1600	CN1C(=O)c2c(nn(Cc3ccc(-c4cccc(F)n4)cc3)c2NC2CCCCC2)N2C1=N[C@@H]1CCC[C@@H]12	–
2.2	350	770	CN1C(=O)c2c(nn(Cc3ccc(-c4cccc(F)n4)cc3)c2Cc2ccccc2)N2C1=N[C@@H]1CCC[C@@H]12	Kp [4]: 1.2; Cmax [5]: 101 ng/mL; logD [6]: 4.96; solubility [7]: < 1 µM; logD [8]: 1.36; Cmax [9]: 86 ng/mL; AUC(0-t) [10]: 154 ng·h/mL; CLint scaled [11]: 165 mL/min/kg; AUC(0-t) [12]: 134 ng·h/mL
0.49	133	65	CN1C(=O)c2c(nn(Cc3ccc(S(C)(=O)=O)cc3)c2Nc2ccccc2)N2C1=N[C@@H]1CCC[C@@H]12	–
0.15	–	–	CN1C(=O)c2c(nn(Cc3ccc(-c4cccc(F)n4)cc3)c2Nc2ccccc2)N2C1=N[C@@H]1CCC[C@@H]12 [LENRISPODUN]	–
